What was measured:
[1] = skin sensitization test (LLNA method), OECD test guide line 429; assay type: in vivo; conditions: for Stimulation Index (SI value): photopolymerizable monomers used in clear inks B to K, SI less than 3 = no problem in skin sensitization
Procedure: The LLNA method is a skin sensitization test specified as OECD test guide line 429, and as shown on page 55 in “Functional Materials” Vol. 25, No. 9 published in September, 2005, the skin sensitization is determined to have no problem when Stimulation Index (SI value) showing a degree of the skin sensitization is less than 3.

[2] = evaluation taken from MSDS; cited from earlier work

Compound | Stimulation Index (SI value) [1] | also measured
C=CC(=O)OCC(C)(C)COC(=O)C=C [Neopentylglycol diacrylate, reference compound] |  | skin sensitization of photopolymerizable monomer (positive / negative grouping) ([1]; grouping printed in Table 1): Positive
Caprolactone-modified dipentaerythritolhexaacrylate |  | skin sensitization (from MSDS) [2]: Negative skin
Caprolactone-modified neopentylglycolhydroxypivalate ester | 0.9 | 
Polyethoxylated tetramethylolmethanetetraacrylate | 1.7 | 
Polyethyleneglycol#400 dimethacrylate | 1.3 | 
Polyethyleneglycol#600 dimethacrylate | 1.6 | 
Tricyclodecanedimethanoldimethacrylate | 1.3 | 
γ-butyrolactone methacrylate | 2.1 | 
